Reference: US20160045463A1, “USE OF METALLOPROTEASE INHIBITORS IN THE TREATMENT OF POLYCYSTIC LIVER DISEASES” (UNIVERSIDAD DE SALAMANCA, priority 2012, published 2016)

Columns and labels:
PCK rats = assay: Treatment of PCK rats with Marimastat for 8 weeks; assay type: in vivo, rat
Description: PCK rats, sold by the Charles River company, is a well characterised animal model of ARPKD and used for the study of liver and kidney cystogenesis (Mason S B, et al. The Anatomical Record: Advances in Integrative Anatomy and Evolutionary Biology 2010; 293:1279-1288). This colony of animals has a spontaneous orthologous mutation in the PKHD1 gene that causes them to develop liver and kidney symptoms similar to those of ARPKD patients. Thus, after 4 weeks of life, PCK rats, irrespective of sex, start to develop liver and kidney cystogenesis and fibrosis, which are clearly shown at 16 weeks of life. In addition, these animals also show an increase in serum values of creatinine, bilirubin, cholesterol, triglycerides and proteinuria (Mason S B, et al. The Anatomical Record: Advances in Integrative Anatomy and Evolutionary Biology 2010; 293:1279-1288). PCK rats were maintained on standard diet for the whole assay and all in vivo experimental procedures were approved by the Ethics Committee of the Instituto Biodonostia.
The group of control rats received the vehicle solution (i.e. distilled water) orally, 2 times a day (every ˜8-12 hours) and using the tube. Various biochemical markers were monitored in serum at the start and end of the study. Blood was extracted (500 μl through the tail vein) after anaesthetising the animal with isoflurane (inhalation anaesthesia, 2.5% in oxygen, with a flow rate of 0.3 L/min). After centrifuging the blood, various biochemical parameters were determined in the serum: alkaline phosphatase (ALP), transaminases (ALT, AST), bilirubin, biliary acids, creatinine, cholesterol, triglycerides and total proteins using a COBAS Integra400 Plus 174 analyser.
After sacrificing the animals, the liver and kidney were removed and weighed; next both types of tissue were sectioned with a scalpel and fixed with a solution of 10% formaldehyde, to be later included in paraffin. Slices of 5 μm thickness were made of each sample and stained with hematoxylin-eosin or picrosirius red.
The aim of hematoxylin-eosin staining is the determination of histological morphology. Thus the slices were incubated for 4 minutes with Harris hematoxylin (Merck) at room temperature. After incubation, the samples were washed with distilled water and stained with eosin (Merck) for 1 minute at room temperature. Next, the tissue slices were washed in running water for 5 minutes, dehydrated by immersion in solutions of increasing ethanol concentration (70%, 96%, 100% for 1 minute each) and finally incubated with xylol for 5 minutes. The samples were mounted with DePeX (Sigma) mounting medium for subsequent viewing in an optical microscope (Nikon Eclipse E800).
The purpose of picrosirius red staining is the determination of extracellular collagen in the tissue. When hydration was completed, the slices were stained with 0.2% phosphomolybdic acid (Panreac Química) for 2 minutes and washed with distilled water. Next, the samples were incubated with a solution of 0.1% picrosirius red f3B (Gibco) for 3 hours. Finally the samples were washed with a solution of 0.01 N HCl for 2 minutes; the tissue was then dehydrated and mounted as described in the previous section.
Additionally, the level of expression of various profibrotic hepatic markers [collagen 1a1 (Col1a1), beta transforming growth factor (TGFbeta), alpha actin of smooth muscle (alpha-Sma) and the growth factor of connective tissue (Ctgf)] and proinflammatory markers [IL-6, IL CXCL1 and IL1beta)] were analysed by RT-PCR in liver samples of control and PCK rats.

normal rats = assay: Normal rats treated with Marimastat orally for 1 week; assay type: in vivo, rat; settings: oral, same dose
Protocol: The various biochemical and histological markers listed above were also analysed. […] There were also no changes in the mean body weight of the animals.

[1] = cited from earlier work
[2] = 0.2856 mg/kg/day; patients with colorectal cancer; cited from earlier work
[3] = at the time of sacrifice, n = 9
[4] = serum, at the time of sacrifice, n = 9

CNC(=O)[C@@H](NC(=O)[C@H](CC(C)C)[C@H](O)C(=O)NO)C(C)(C)C [Marimastat, N-[2,2-dimethyl-1-(methylcarbamoyl)propyl]-2-[hydroxy-(hydroxycarbamoyl)methyl]-4-methyl-pentanamide]
kidney cystogenesis (PCK rats; 8 weeks, FIG. 25): not affected | cholangiocyte marker Ck19 expression at protein level (Western blot), hepatic samples (PCK rats; 8 weeks, p<0.001, FIG. 27A): down regulation | collagen 1a1 (Col1a1) mRNA expression, hepatic samples (PCK rats; 8 weeks, p<0.05, FIG. 27B): down regulation | mRNA levels of CXCL1 in liver samples (PCK rats; 8 weeks, p=0.08, FIG. 28B): almost statistically significant down regulation | mRNA levels of IL6 in liver samples (PCK rats; 8 weeks, p=0.1, FIG. 28A): almost statistically significant down regulation | collagen deposition in liver (picrosirius red) (PCK rats; 8 weeks, vs control PCK rats, FIG. 26): less collagen deposition | WEIGHT Left kidney (PCK rats; [3]): 2.40 ± 0.19 | WEIGHT Liver (PCK rats; [3]): 26.17 ± 2.98 | WEIGHT Rat (PCK rats; [3]): 497 ± 12.24 | WEIGHT Right kidney (PCK rats; [3]): 2.36 ± 0.17 | serum levels of biochemical markers and biliary flow (PCK rats; at the time of sacrifice, treated vs control, Table 5): no difference | liver cystogenesis (area of intrahepatic biliary cysts) (PCK rats; oral 0.2856 mg/kg/day, 8 weeks, vs control PCK rats, p<0.05, FIG. 24): reduction | ALT (PCK rats; [4]): 138.22 ± 2.66 U/L | AST (PCK rats; [4]): 755.56 ± 24.76 U/L | Albumin (PCK rats; [4]): 13.78 ± 0.59 g/L | Alkaline phosphatase (PCK rats; [4]): 57.00 ± 5.01 U/L | Cholesterol (PCK rats; [4]): 76.56 ± 3.93 mg/dL | Creatinine (PCK rats; [4]): 0.36 ± 0.02 mg/dL | Glucose (PCK rats; [4]): 137.89 ± 7.25 mg/dL | HDL (PCK rats; [4]): 31.11 ± 3.06 mg/dL | LDH (PCK rats; [4]): 15192.33 ± 356.84 U/L | LDL (PCK rats; [4]): 33.38 ± 1.61 mg/dL | Total bilirubin (PCK rats; [4]): 0.16 ± 0.05 mg/dL | Total protein (PCK rats; [4]): 3.11 ± 0.12 g/dL | Triglycerides (PCK rats; [4]): 60.33 ± 3.97 mg/dL | Urea (PCK rats; [4]): 20.33 ± 0.78 mg/dL | histology of the liver or the kidney (normal rats): did not affect | mean body weight of the animals (normal rats): no changes | serum levels of biochemical markers (normal rats): did not affect | oral bioavailability ([1]; compared with Batimastat): better oral bioavailability | toxicity ([1]; compared with Batimastat): less toxicity | elimination half-life ([1]; in vivo): 8 to 10 h | toxicity at dose used in clinical trials [2]: does not cause toxicity
